Tests used:
protozoa [1] = experiment: Cattle defaunation; assay type: in vivo; conditions: for Elimination of protozoa from cattle (in words): 332 mg/kg
Description: Four cattle each were defaunated using either compounds No. 27 or No. 37 at a dose rate of 332 mg/kg. The compounds were administered by firstly mixing with 100 mL of ethanol and then adding 400 mL of centrifuged rumen liquor. This mixture was then administered into the rumen of the animal using a stomach tube.

protozoa [2] = experiment: Pilot field testing: elimination of protozoal population in sheep; assay type: in vivo; conditions: for Elimination of protozoa: one week after single dose of 167 mg/kg
Description: In this trial the effect of defaunation agents after 1 and 2 weeks was examined in sheep in pilot field studies.
Thirty mature fine wooled merino weather sheep consuming a forage diet were given a single dose of either compound 27 or 37. The dose rate was 167 mg/kg and each compound was dispersed in 20 mL of ethanol and 200 mL of centrifuged rumen liquor. The compounds were then administered into the rumen using a flexible stomach tube.

protozoa [3] = experiment: as above; assay type: in vivo; conditions: week 3, 167 mg/kg
protozoa [4] = experiment: Sheep test: protozoal numbers; assay type: in vivo
Description: (§1) In this trial the effect of defaunation by compounds 27, 30 and 37 (see Table 1) after 1 and 3 weeks were examined using penned sheep.
(§2) The compounds were each administered to two sheep as a single dose at 167 mg/kg body weight. Compositions containing each compound were prepared according to the method of Example 1. Sheep were penned and fed 1000 g/day of a chaffed oaten hay and Lucerne mixture (90/10). Protozoal and bacterial viabilities were monitored along with the feed intake of the sheep according to the methods taught in Examples 2, 3 and 7.

[5] = Effect of defaunation compounds on feed intake of sheep; assay type: in vivo; conditions: after dosing vs pre-dosing intake
Description: Sheep were allowed a minimum of three weeks to adapt to their ration of 900 g of oaten chaff and 100 g of Lucerne chaff. The pre-dosing level of intake for each animal was established from the mean of five days intake immediately prior to dosing. Any effects of administering the compound on feed intake was then determined by measuring the level of feed intake after dosing.
The criteria of classifying the effect on food intake are shown below.
Poor--greater than 50% reduction in feed intake during the first week after dosing.
Fair--greater than 50% reduction in feed intake on the day following dosing but less then 50% reduction one week after dosing.
OK--transient drop in feed intake which is less than 50% on the day after dosing.
Good--No reduction in feed intake following dosing.

Sheep test: feed intake = assay type: in vivo
Description: as §1, §2

protozoa [6] = experiment: Wool growth trial: protozoal number; assay type: in vivo; conditions: sheep, defaunated period, 167 mg/kg
Description: Seven sheep each were defaunated using a dose rate of 167 mg/kg. Compounds were administered by first mixing with 20 ml of ethanol and then with 200 ml of centrifuged rumen liquor. This solution was then administered via a flexible stomach tube directly into the rumen. The sheep were fed with a ration of 90% oaten chaff and 10% Lucerne chaff at a rate of 1000 g per day. The sheep were maintained in a defaunated state by their isolation from faunated sheep to prevent the possibility of refaunation. The sheep were allowed to adjust for 3 weeks after administering the compound before any wool growth measurements were taken.
At the start of the wool growth measurement period, a 10 cm square area of wool was removed from both sides of the sheep. After four weeks the same area was reclipped and the wool retained for scouring at the end of the trial.
The sheep then had protozoa introduced back into their rumen and were allowed to adjust for three weeks. Similarly, during the second four week period, the wool was clipped from the same patch area. The wool harvested during the two four week trial periods was then scoured of wool wax and extraneous material and weighed.

rumen ciliate protozoa = experiment: In vitro activity of defaunation compounds against rumen ciliate protozoa; assay type: cell-based; conditions: 39° C., anaerobic, 3 hours, tested at 50, 150, 250 and 500 ppm
Description: Compounds of Table 1 were tested for their toxicity against rumen ciliate protozoa by firstly isolating protozoa from rumen liquor collected from faunated animals. The rumen liquor was then centrifuged at 500 g for five minutes and the supernatant discarded. The protozoal-rich sediment was then reconstituted in McDougal's artificial saliva. Residual bacteria were suppressed by using a combination of two antibiotics at low concentration. Nitrogen and energy substrate was optimized for the protozoal preparation. At all times the protozoal preparation was maintained at 39° C. and kept anaerobic.
Sixty milligrams of each the compounds of Table 1 were dissolved in 1.2 ml of dimethyl sulphoxide and dispersed in triplicate to achieve a final concentration of 50, 150, 250 and 500 ppm. Ten milliliters of protozoal preparation was then added to each tube. After every second compound, control tubes were included which contained everything except for compound. The tubes, to which a 5 ml glass syringe was attached, were then incubated for 3 hours in a water bath at 39° C. The production of gas causes the syringe plunger to be displaced.
At the end of the incubation period, the volume of gas produced was recorded and the viability of the protozoa assessed visually using a microscope. The toxicity of the compounds to protozoa was assessed from both the reduction in gas produced relative to the control and by direct observation of the protozoa for movement of cilia.

rumen bacteria = experiment: Bacterial viability in sheep after administering defaunation compounds; assay type: in vivo; conditions: gas production one week after dosing vs pre-dosing
Description: In order to establish what effect the compounds had on the viability of rumen bacteria, a sample of rumen liquor was collected prior to dosing of the compound. The sample was withdrawn under vacuum using a pre-warmed tube inserted into the rumen through a rumen cannula. The sample was collected in a pre-warmed (39° C.) flask, gassed with carbon dioxide and covered. Two-pre-warmed 30 ml centrifuge tubes were then filled with well mixed rumen liquor and centrifuged at 2000 rpm for 5 minutes. Half the volume of each tube was then poured into another pre-warmed tube without disturbing the sediment. Three lots of 10 ml of this rumen liquor were then pipetted into 15 ml tubes which contained 10 μL of urea solution (40% w/v and 300 μL of glucose solution (50% w/v). The urea and glucose acted as substrate for the bacteria. The tubes were then gassed with carbon dioxide, stoppered and placed in a water bath at 39° C. After 10 minutes a 5 ml glass syringe was secured into the stoppers (through which a hypodermic needle had been inserted) and the gas collected for five hours and recorded.
This bacterial viability measure was then repeated one week after dosing with each of the compounds referred to in Table 1. Defaunation compositions were prepared according to the method of Example 1. The amount of gas produced was then compared with the pre-dosing level. The criterion for classifying post-dosing bacterial viability is shown below:
Poor--reduction in post-dosing gas production relative to pre-dosing levels.
OK--post-dosing gas production the same as pre-dosing levels.
Good--increase in post-dosing gas production relative to pre-dosing levels.

Row | SMILES | Elimination of protozoa from cattle (in words) (protozoa [1]) | Mean protozoal number (protozoa [1]; week 0, 332 mg/kg) | Mean protozoal number (protozoa [1]; week 4, 332 mg/kg) | Elimination of protozoa (protozoa [2]) | Protozoal number (protozoa [2]; week 0, 167 mg/kg) | Protozoal number (protozoa [2]; week 1, 167 mg/kg) | Protozoal number (protozoa [2]; week 2, 167 mg/kg) | Protozoal number (protozoa [3]) | Protozoal Nos. (protozoa [4]; 1 week after 167 mg/kg) | Protozoal Nos. (protozoa [4]; 3 weeks after 167 mg/kg) | Protozoal Nos. (protozoa [4]; pre-dose (baseline)) | Feed Intake [5] | Feed Intake (Sheep test: feed intake; 1 week after 167 mg/kg) | Feed Intake (Sheep test: feed intake; 3 weeks after 167 mg/kg) | Feed Intake (Sheep test: feed intake; pre-dose (baseline)) | Prot. Number (protozoa [6]) | Conc Required to Kill all Protozoa (rumen ciliate protozoa) | Bacterial Viability (rumen bacteria)
1 | Cc1ccc(Nc2nc(Cl)nc(Cl)n2)cc1Cl [Compound 27, 2,4 dichloro-6-(3 chloro-4-methylanilino)-s-triazine] | able to eliminate protozoa from cattle | 220 per mL × 10^3 | 0 per mL × 10^3 | total elimination of protozoa in all sheep | 285 per mL × 10^3 | 0 per mL × 10^3 | 0 per mL × 10^3 | 0 per mL × 10^3 | 0 per mL × 10^3 | 0 per mL × 10^3 | 950 per mL × 10^3 | Okay (transient drop, less than 50% at day 2) | 1000 g/day | 1000 g/day | 966 g/day | 0 per mL × 10^3 | 150 ppm | Okay
2 | Clc1nc(Cl)nc(Nc2ccccc2Cl)n1 [Compound 37, 2,4-dichloro-6-(2-chloroanilino)-1,3,5-triazine] | able to eliminate protozoa from cattle | 313 per mL × 10^3 | 0 per mL × 10^3 | total elimination of protozoa in all sheep | 190 per mL × 10^3 | 0 per mL × 10^3 | 0 per mL × 10^3 | 0 per mL × 10^3 | 0 per mL × 10^3 | 0 per mL × 10^3 | 497 per mL × 10^3 | Okay (transient drop, less than 50% at day 2) | 930 g/day | 820 g/day | 1000 g/day | 0 per mL × 10^3 | 250 ppm | Okay
